{"source": "PubChem BioAssay (NCI)", "assay_in_all_cases": "NCI tumour cell line growth inhibition, 48 h", "key": {"786-0 renal": {"tested_on": "786-0 renal"}, "MDA-N": {"tested_on": "MDA-N"}, "MDA-MB-435": {"tested_on": "MDA-MB-435"}, "HS 578T breast": {"tested_on": "HS 578T breast"}, "BT-549 breast": {"tested_on": "BT-549 breast"}, "DMS 273 small cell lung": {"tested_on": "DMS 273 small cell lung"}, "SNB-78 CNS": {"tested_on": "SNB-78 CNS"}, "RXF-631 renal": {"tested_on": "RXF-631 renal"}, "XF 498 CNS": {"tested_on": "XF 498 CNS"}, "LXFL 529 NSCLC": {"tested_on": "LXFL 529 NSCLC"}, "SN12K1 renal": {"tested_on": "SN12K1 renal"}, "P388 leukemia": {"tested_on": "P388 leukemia"}, "P388/ADR leukemia": {"tested_on": "P388/ADR leukemia"}}, "note": "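Five compound concentrations were applied to cells in 96-well plates for 48 hours; endpoints were derived by simple linear interpolation of the resulting dose-response curve. TGI marks complete inhibition of growth.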", "data": [{"molecule": "O=P(O)(O)CCP(=O)(O)O", "values": [{"measurement": "TGI", "setting": "786-0 renal", "result": "> 100", "unit": "µM"}, {"measurement": "TGI", "setting": "MDA-N", "result": "> 100", "unit": "µM"}, {"measurement": "TGI", "setting": "MDA-MB-435", "result": "> 100", "unit": "µM"}, {"measurement": "TGI", "setting": "HS 578T breast", "result": "> 100", "unit": "µM"}, {"measurement": "TGI", "setting": "BT-549 breast", "result": "> 100", "unit": "µM"}]}, {"molecule": "NC(CCCCCP(=O)(c1ccccc1)C1C=CC=CC1)C(=O)O", "note": "(stereo not given)", "values": [{"measurement": "TGI", "setting": "MDA-N", "result": "> 100", "unit": "µM"}, {"measurement": "TGI", "setting": "MDA-MB-435", "result": "> 100", "unit": "µM"}, {"measurement": "TGI", "setting": "HS 578T breast", "result": "> 100", "unit": "µM"}, {"measurement": "TGI", "setting": "BT-549 breast", "result": "> 100", "unit": "µM"}]}, {"molecule": "CCN(CC)CCNc1ccc2nnn3c4ccc(OCCN(CC)CC)cc4c(=O)c1c23", "values": [{"measurement": "TGI", "setting": "786-0 renal", "result": "> 100", "unit": "µM"}, {"measurement": "TGI", "setting": "MDA-N", "result": "> 100", "unit": "µM"}, {"measurement": "TGI", "setting": "MDA-MB-435", "result": "> 100", "unit": "µM"}, {"measurement": "TGI", "setting": "HS 578T breast", "result": "> 100", "unit": "µM"}, {"measurement": "TGI", "setting": "BT-549 breast", "result": "> 100", "unit": "µM"}]}, {"molecule": "COc1cc2c(cc1OC)C(CC1=C(c3ccccc3)CN3CCc4cc(OC)c(OC)cc4C3C1)NCC2", "note": "(stereo not given)", "values": [{"measurement": "TGI", "setting": "DMS 273 small cell lung", "result": 31.6, "unit": "µM"}, {"measurement": "TGI", "setting": "SNB-78 CNS", "result": 31.9, "unit": "µM"}, {"measurement": "TGI", "setting": "786-0 renal", "result": 29.5, "unit": "µM"}, {"measurement": "TGI", "setting": "RXF-631 renal", "result": 30.4, "unit": "µM"}, {"measurement": "TGI", "setting": "XF 498 CNS", "result": 25.9, "unit": "µM"}, {"measurement": "TGI", "setting": "LXFL 529 NSCLC", "result": 31.1, "unit": "µM"}]}, {"molecule": "O=S(=O)(O)CCCc1cccc2ccccc12", "values": [{"measurement": "TGI", "setting": "786-0 renal", "result": "> 100", "unit": "µM"}, {"measurement": "TGI", "setting": "MDA-N", "result": "> 100", "unit": "µM"}, {"measurement": "TGI", "setting": "MDA-MB-435", "result": "> 100", "unit": "µM"}, {"measurement": "TGI", "setting": "HS 578T breast", "result": "> 100", "unit": "µM"}, {"measurement": "TGI", "setting": "BT-549 breast", "result": "> 100", "unit": "µM"}]}, {"molecule": "O=c1cc[nH]c(=O)[nH]1", "values": [{"measurement": "TGI", "setting": "DMS 273 small cell lung", "result": "> 729", "unit": "µM"}, {"measurement": "TGI", "setting": "SNB-78 CNS", "result": "> 1000", "unit": "µM"}, {"measurement": "TGI", "setting": "SN12K1 renal", "result": 994, "unit": "µM"}, {"measurement": "TGI", "setting": "P388 leukemia", "result": 447, "unit": "µM"}, {"measurement": "TGI", "setting": "XF 498 CNS", "result": 7.72, "unit": "µM"}, {"measurement": "TGI", "setting": "P388/ADR leukemia", "result": 807, "unit": "µM"}]}, {"molecule": "CC(=O)OC1/C=C(\\C)C(OC(C)=O)C/C=C(/C)CCC2C(/C=C/C1=O)C2(C)C", "note": "(stereo not given)", "values": [{"measurement": "TGI", "setting": "SNB-78 CNS", "result": "> 100", "unit": "µM"}, {"measurement": "TGI", "setting": "RXF-631 renal", "result": "> 100", "unit": "µM"}, {"measurement": "TGI", "setting": "XF 498 CNS", "result": "> 100", "unit": "µM"}, {"measurement": "TGI", "setting": "LXFL 529 NSCLC", "result": "> 100", "unit": "µM"}]}, {"molecule": "CC(=O)Nc1ccc(N=Nc2c(O)c(S(=O)(=O)O)cc3cc(S(=O)(=O)O)ccc23)cc1", "values": [{"measurement": "TGI", "setting": "786-0 renal", "result": "> 100", "unit": "µM"}, {"measurement": "TGI", "setting": "MDA-N", "result": "> 100", "unit": "µM"}, {"measurement": "TGI", "setting": "MDA-MB-435", "result": "> 100", "unit": "µM"}, {"measurement": "TGI", "setting": "HS 578T breast", "result": "> 100", "unit": "µM"}, {"measurement": "TGI", "setting": "BT-549 breast", "result": "> 100", "unit": "µM"}]}, {"molecule": "C[n+]1c2ccc(Cl)cc2nc2cc(-c3ccccc3)ccc21", "values": [{"measurement": "TGI", "setting": "786-0 renal", "result": "> 100", "unit": "µM"}, {"measurement": "TGI", "setting": "HS 578T breast", "result": 65, "unit": "µM"}, {"measurement": "TGI", "setting": "BT-549 breast", "result": 25.5, "unit": "µM"}]}, {"molecule": "O=C(O)C(O)C(O)C(O)C(O)c1nc2ccccc2s1", "note": "(stereo not given)", "values": [{"measurement": "TGI", "setting": "786-0 renal", "result": 30.4, "unit": "µM"}, {"measurement": "TGI", "setting": "MDA-N", "result": 33.2, "unit": "µM"}, {"measurement": "TGI", "setting": "MDA-MB-435", "result": 31.8, "unit": "µM"}, {"measurement": "TGI", "setting": "HS 578T breast", "result": 60.2, "unit": "µM"}, {"measurement": "TGI", "setting": "BT-549 breast", "result": 63.2, "unit": "µM"}]}, {"molecule": "O=C1c2cccc3c2C(=O)c2c(cccc21)OCCOCCOCCOCCO3", "values": [{"measurement": "TGI", "setting": "DMS 273 small cell lung", "result": "> 100", "unit": "µM"}, {"measurement": "TGI", "setting": "SNB-78 CNS", "result": "> 100", "unit": "µM"}, {"measurement": "TGI", "setting": "RXF-631 renal", "result": "> 100", "unit": "µM"}, {"measurement": "TGI", "setting": "LXFL 529 NSCLC", "result": "> 100", "unit": "µM"}]}, {"molecule": "Cc1n(Cc2ccccc2)c2c([n+]1C)C(=O)c1ccccc1C2=O", "values": [{"measurement": "TGI", "setting": "786-0 renal", "result": 0.877, "unit": "µM"}, {"measurement": "TGI", "setting": "MDA-N", "result": 0.32, "unit": "µM"}, {"measurement": "TGI", "setting": "MDA-MB-435", "result": 0.33, "unit": "µM"}, {"measurement": "TGI", "setting": "HS 578T breast", "result": 2.14, "unit": "µM"}, {"measurement": "TGI", "setting": "BT-549 breast", "result": 0.234, "unit": "µM"}]}, {"molecule": "Cc1c(O)ccc2c(O)c(NC(=O)c3ccc4c(c3)CCC(C)(C)O4)c(=O)oc12", "values": [{"measurement": "TGI", "setting": "786-0 renal", "result": "> 100", "unit": "µM"}, {"measurement": "TGI", "setting": "MDA-N", "result": "> 100", "unit": "µM"}, {"measurement": "TGI", "setting": "MDA-MB-435", "result": "> 100", "unit": "µM"}, {"measurement": "TGI", "setting": "HS 578T breast", "result": "> 100", "unit": "µM"}, {"measurement": "TGI", "setting": "BT-549 breast", "result": "> 100", "unit": "µM"}]}, {"molecule": "Nc1c(C(=O)O)nnc2ccc(Cl)cc12", "values": [{"measurement": "TGI", "setting": "786-0 renal", "result": "> 100", "unit": "µM"}, {"measurement": "TGI", "setting": "MDA-N", "result": "> 100", "unit": "µM"}, {"measurement": "TGI", "setting": "MDA-MB-435", "result": "> 100", "unit": "µM"}, {"measurement": "TGI", "setting": "HS 578T breast", "result": "> 100", "unit": "µM"}, {"measurement": "TGI", "setting": "BT-549 breast", "result": "> 100", "unit": "µM"}]}, {"molecule": "O=c1sc2ccccc2n1CC1CS1", "note": "(stereo not given)", "values": [{"measurement": "TGI", "setting": "DMS 273 small cell lung", "result": "> 100", "unit": "µM"}, {"measurement": "TGI", "setting": "XF 498 CNS", "result": "> 100", "unit": "µM"}]}, {"molecule": "C=CCc1c(O)c2c(c3oc(=O)cc(C)c13)CC(C)O2", "note": "(stereo not given)", "values": [{"measurement": "TGI", "setting": "DMS 273 small cell lung", "result": "> 100", "unit": "µM"}, {"measurement": "TGI", "setting": "SNB-78 CNS", "result": "> 100", "unit": "µM"}, {"measurement": "TGI", "setting": "LXFL 529 NSCLC", "result": "> 100", "unit": "µM"}]}, {"molecule": "CC(C)Cc1ccc(C(C)C(=O)N2CCN(/C=C/c3ccccc3)CC2)cc1", "note": "(stereo not given)", "values": [{"measurement": "TGI", "setting": "DMS 273 small cell lung", "result": 24.2, "unit": "µM"}, {"measurement": "TGI", "setting": "SNB-78 CNS", "result": 46.7, "unit": "µM"}, {"measurement": "TGI", "setting": "SN12K1 renal", "result": 27.1, "unit": "µM"}, {"measurement": "TGI", "setting": "P388 leukemia", "result": 29.8, "unit": "µM"}, {"measurement": "TGI", "setting": "XF 498 CNS", "result": 27.3, "unit": "µM"}, {"measurement": "TGI", "setting": "P388/ADR leukemia", "result": 42.1, "unit": "µM"}]}, {"molecule": "CCOc1ncn(-c2ccc(NC(=S)Nc3ncccn3)cc2)n1", "values": [{"measurement": "TGI", "setting": "MDA-MB-435", "result": "> 100", "unit": "µM"}, {"measurement": "TGI", "setting": "BT-549 breast", "result": 71.1, "unit": "µM"}]}, {"molecule": "CCCC(=O)OCC1OC(n2ccc(N)nc2=O)C(OC(=O)CCC)C1OC(=O)CCC", "note": "(stereo not given)", "values": [{"measurement": "TGI", "setting": "DMS 273 small cell lung", "result": "> 100", "unit": "µM"}, {"measurement": "TGI", "setting": "SNB-78 CNS", "result": "> 100", "unit": "µM"}, {"measurement": "TGI", "setting": "SN12K1 renal", "result": "> 100", "unit": "µM"}, {"measurement": "TGI", "setting": "P388 leukemia", "result": 13.9, "unit": "µM"}, {"measurement": "TGI", "setting": "P388/ADR leukemia", "result": "> 100", "unit": "µM"}]}]}
